Measurements as given in patent publication US7655752B2, “TNF-α converting enzyme inhibitory agents and method of using same” (The United States of America as represented by the …, priority 2003, dated 2010).
Ends that are not written are not given here.

Key:
[1] = test system: recombinant human TACE (rhTACE); assay: TACE-mediated cleavage of rhTNFR2:Fc model substrate (SDS-PAGE, silver staining, Western blot); format: biochemical; conditions: for inhibition of TACE-mediated cleavage of TNFR2:Fc: 80 μM peptide, silver staining
Description: A model assay system was developed to assess the ability of N-TACE to inhibit TACE enzymatic activity. Recombinant human TACE (rhTACE), as well as the recombinant human TNFR1:Fc (rhTNFR1:Fc) and TNFR2:Fc (rhTNFR2:Fc) fusion proteins were purchased from R & D Systems (Minneapolis, Minn.). Both TNFR1:Fc and TNFR2:Fc are recombinant human chimeric proteins that encode the extracellular receptor domains, fused to a carboxy-terminal 6X-histidine-tagged Fc region of human IgG1 via a linker peptide (IEGRMD)(SEQ ID NO:1). Recombinant human TACE corresponds to the mature form following removal of the prodomain and has an apparent molecular weight of 70 kDa. N-TACE(18-54), which lacked the signal peptide, was synthesized by Sigma-Genosys (The Woodlands, Tex.). N-TACE truncation mutants were also synthesized; an amino-terminal mutant N-TACE(18-29) corresponded to N-TACE amino acids 18-29, a mid-domain mutant N-TACE(30-42) corresponded to N-TACE amino acids 30-42, a carboxy-terminal mutant N-TACE(43-54) corresponded to amino acids 43-54, and an extended mid-domain mutant N-TACE(30-48) corresponded to amino acids 30 to 48.
Chou Fasman analysis was performed using MacVector (Accelrys, Burlington, Mass.). Assays (50 μl) were performed in 50 mM Tris, 25 mM NaCl, pH 8.0 at 30° C. for 30 min. Samples were analyzed by SDS-PAGE using 4%-12% Bis-Tris Nupage gels (Invitrogen, Carlsbad, Calif.) and visualized with the SilverQuest Silver Staining Kit (Invitrogen, Carlsbad, Calif.). For Western blot analysis, samples were separated via SDS-PAGE, electroblotted onto nitrocellulose membranes, and incubated overnight (4° C.) with 200 ng/ml of a murine IgG1 monoclonal antibody directed against the histidine tag (Tetra-His, Qiagen, Valenica, Calif.). The antibody detected the carboxy-terminus of the recombinant human TNFR2:Fc fusion protein. A rabbit polyclonal antibody was also generated against N-TACE(18-54) (Sigma-Genosys, The Woodlands, Tex.) and was utilized for Western blotting at a 1:1000 dilution. Detection was by chemiluminescence using horseradish peroxidase-conjugated secondary antibodies.

[2] = test system: TNFR2 shedding from U937 cells; assay: TNFR2 shedding from U937 cells (sandwich ELISA of soluble TNFR2 in supernatants); format: cell-based; conditions: 40 μM, 24 hours
Experimental: (§1) The ability of N-TACE to inhibit TNFR2 shedding was tested in a cell-based system. U937 cells were obtained from ATCC (Manassas, Va.) and maintained in RPMI-1640 medium with 10% fetal bovine serum. For experiments, U937 cells were plated into 6 well plates at a density of 2×10^6 cells/ml. PMA was purchased from Sigma (St. Louis, Mo.). Release of TNFR2 into […] cell culture supernatants over a 24-hour period was assayed utilizing a sandwich ELISA with a sensitivity of 7.8 pg/ml (R & D Systems). Cellular apoptosis and necrosis were measured using the TACS Annexin V-FITC Apoptosis Detection Kit (R & D Systems, Minneapolis, Minn.) and a XL-MCL Flow Cytometer (Becman-Coulter, Miami, Fla.). Statistical analysis was performed by a paired Student's t test with a Bonferroni correction for multiple comparisons and by single factor ANOVA. Differences were considered significant at a P value <0.05.
(§2) The U937 monocytic cells were treated for 24 hours with either N-TACE(18-54) (0.04 to 40 μM), or a peptide corresponding to N-TACE amino acids 18-29 (40 μM). […] In contrast, N-TACE(18-29) had no effect on TNFR2 shedding as compared to cells treated with media alone (186.5±1.8 vs. 184.6±2.2, n=6, P=NS).

[3] = test system: U937 cells; assay: Cellular apoptosis and necrosis (Annexin V binding and propidium iodide uptake, flow cytometry); format: cell-based
Experimental: as §1, §2

[4] = 0.5 μM rhTACE, 0.95 μM TNFR2:Fc, 30 min

Compound	inhibition of TACE-mediated cleavage of TNFR2:Fc [1, 4]	other results
CC(C)C[C@H](CC(=O)NO)C(=O)N[C@H](C(=O)N[C@@H](C)C(=O)NCCN)C(C)(C)C [TAPI-2, reference compound]		inhibition of TACE-mediated TNFR2 cleavage ([1]; 25 μM, 0.5 μM rhTACE, 0.95 μM TNFR2:Fc, 30 min): completely inhibited
N-TACE(18-29): amino-terminal truncation mutant corresponding to N-TACE amino acids 18-29 (PRPPDDPGFGPH)	none of the N-TACE truncation mutants (80 μM) inhibited	effect on TNFR2 shedding ([2]; compared to media alone): no effect
N-TACE(30-42): mid-domain truncation mutant corresponding to N-TACE amino acids 30-42 (QRLEKLDSLLSDY)	none of the N-TACE truncation mutants (80 μM) inhibited	
N-TACE(30-48): extended mid-domain mutant, 19-amino acid leucine-rich peptide, amino acids 30 to 48; QRLEKLDSLLSDYDILSLS (listed as Homo sapiens)	inhibited	inhibition of TNFR2 shedding ([2]; compared to cells treated with media alone): about 16%
N-TACE(43-54): carboxy-terminal truncation mutant corresponding to amino acids 43-54 (DILSLSNIQQHS)	none of the N-TACE truncation mutants (80 μM) inhibited	
N-TACE: 54 amino acid protein: first 54 amino acids of TACE, signal peptide plus amino-terminus of prodomain, SEQ ID NO:3 (MRQSLLFLTSVVPFVLAPRPPDDPGFGPHQRLEKLDSLLSDYDILSLSNIQQHS; listed as Homo sapiens)		inhibition of TACE-mediated cleavage of TNFR2:Fc (summary statement) ([1]; concentration not given): shown to inhibit
PRPPDDPGFGPHQRLEKLDSLLSDYDILSLSNIQQHS [N-TACE(18-54)]		apoptosis or necrosis as cause of decreased TNFR2 shedding [3]: not a consequence of either apoptosis or necrosis
vasoactive intestinal peptide (HSDAVFTDNYTRLRKQMAVKKYLNSILN) [VIP, irrelevant peptide purchased from Bachem, specificity control, reference compound]	neither α-defensin or VIP inhibited	
